Test system: 898857-211-R-J1-PDC complex spheroids, growth % test/control
Experiment: Anticancer human tumor 898857-211-R-J1-PDC patient-derived melanoma cell line growth inhibition [RAS]
Details: for IC50: curve of first compound; for viability, T/C: stronger effect = lower value
In short: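 Multi-cell-type spheroids: tumor cells plus HUVEC endothelial cells and mesenchymal stem cells. RAS-pathway inhibitors were combined with targeted agents, each dosed in half-log steps down from clinical Cmax, or from 10 microM when Cmax was unknown.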
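Also: spheroids exposed to compound for seven days before readout.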
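For viability, T/C in this document: 100% = DMSO vehicle control wells.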

Compound `CCc1c2c(nc3ccc(O)cc13)-c1cc3c(c(=O)n1C2)COC(=O)[C@]3(O)CC` + CCn1c(-c2cccnc2C(C)OC)c2c3cc(ccc31)N1CCOC(CC(NC(=O)C(C(C)C)N(C)C(=O)C3(F)CCN(C(=O)C#CC(C)(C)N(C)C)CC3)C(=O)N3CCCC(N3)C(=O)OCC(C)(C)C2)C1 has an IC50 (second compound 0.000949 µM) of 5.13 nM, an IC50 (second compound 0.003 µM) of 4.91 nM and an IC50 (second compound 0.00949 µM) of 4.21 nM. The IC50 (second compound 0.03 µM) was 3.8 nM, the IC50 (second compound 0.0949 µM) was 3.54 nM and the IC50 (second compound 0.3 µM) was 2.75 nM. The viability, T/C (second compound 0.000949 µM, first compound 0.000949 µM) was 103%, the viability, T/C (second compound 0.000949 µM, first compound 0.003 µM) was 66.7% and the viability, T/C (second compound 0.000949 µM, first compound 0.00949 µM) was 31.6%. It also gave a viability, T/C (second compound 0.000949 µM, first compound 0.03 µM) of 10.2%, a viability, T/C (second compound 0.000949 µM, first compound 0.0949 µM) of 7.77% and a viability, T/C (second compound 0.000949 µM, first compound 0.3 µM) of 6.78%. It also gave a viability, T/C (second compound 0.003 µM, first compound 0.000949 µM) of 92.2%, a viability, T/C (second compound 0.003 µM, first compound 0.003 µM) of 64.1% and a viability, T/C (second compound 0.003 µM, first compound 0.00949 µM) of 31.5%. The viability, T/C (second compound 0.003 µM, first compound 0.03 µM) was 11.2%, the viability, T/C (second compound 0.003 µM, first compound 0.0949 µM) was 6.86% and the viability, T/C (second compound 0.003 µM, first compound 0.3 µM) was 5.62%. The viability, T/C (second compound 0.00949 µM, first compound 0.000949 µM) was 91.5%, the viability, T/C (second compound 0.00949 µM, first compound 0.003 µM) was 58.2% and the viability, T/C (second compound 0.00949 µM, first compound 0.00949 µM) was 30.2%. The viability, T/C (second compound 0.00949 µM, first compound 0.03 µM) was 11.7%, the viability, T/C (second compound 0.00949 µM, first compound 0.0949 µM) was 6.64% and the viability, T/C (second compound 0.00949 µM, first compound 0.3 µM) was 7.62%. The viability, T/C (second compound 0.03 µM, first compound 0.000949 µM) was 88.5%, the viability, T/C (second compound 0.03 µM, first compound 0.003 µM) was 55.3% and the viability, T/C (second compound 0.03 µM, first compound 0.00949 µM) was 28.3%. It also gave a viability, T/C (second compound 0.03 µM, first compound 0.03 µM) of 9.56%, a viability, T/C (second compound 0.03 µM, first compound 0.0949 µM) of 7.6% and a viability, T/C (second compound 0.03 µM, first compound 0.3 µM) of 5.55%. For the same compound, the viability, T/C (second compound 0.0949 µM, first compound 0.000949 µM) was 77.6%, the viability, T/C (second compound 0.0949 µM, first compound 0.003 µM) was 52.6% and the viability, T/C (second compound 0.0949 µM, first compound 0.00949 µM) was 29.5%. For the same compound, the viability, T/C (second compound 0.0949 µM, first compound 0.03 µM) was 8.59%, the viability, T/C (second compound 0.0949 µM, first compound 0.0949 µM) was 6.88% and the viability, T/C (second compound 0.0949 µM, first compound 0.3 µM) was 5.75%. For the same compound, the viability, T/C (second compound 0.3 µM, first compound 0.000949 µM) was 65.3%, the viability, T/C (second compound 0.3 µM, first compound 0.003 µM) was 48.6% and the viability, T/C (second compound 0.3 µM, first compound 0.00949 µM) was 20.1%. The viability, T/C (second compound 0.3 µM, first compound 0.03 µM) was 7.15%, the viability, T/C (second compound 0.3 µM, first compound 0.0949 µM) was 8.16% and the viability, T/C (second compound 0.3 µM, first compound 0.3 µM) was 5.2%.

— PubChem BioAssay AID2060882 (Molecular Pharmacology Branch, DTP, NCI, 2025)
